Measured values as given in ChEMBL document CHEMBL5038589, “Design, Synthesis, and Structure-Activity Relationship of N-Aryl-N'-(thiophen-2-yl)thiourea Derivatives as Novel and Specific Human TLR1/2 Agonists for Potential Cancer Immunotherapy” (J Med Chem, 2021).
Calls of active or inactive are those of the source. The rule behind the calls is not given here.

How the values were obtained:
Macrophage [1] = assay: Induction of TNFalpha secretion in wild-type C57BL/6 mouse peritoneal macrophages at 0.01 to 10 uM incubated for 24 hrs by ELISA method; type: functional, cell-based; conditions: dose 0.01-10 µM
THP-1 [2] = assay: Induction of JNK phosphorylation in human PMA-differentiated THP-1 cells at 10 uM incubated for 2 hrs by Western blot analysis; type: functional, cell-based
HCT-116 [3] = assay: Induction of apoptosis in human HCT-116 cells upto 100 uM by microplate reader analysis; type: functional, cell-based; conditions: dose microM <=100
Toll-like receptor 2 [4] = target: T1, Toll-like receptor 2 (Homo sapiens, UniProt O60603); assay: Agonist activity at TLR2 in HEK-Blue cells incubated for 24 hrs by Quanti-Blue based SEAP assay; type: cell-based; conditions: HEK-Blue hTLR2, filed as agonist
T1 sequence (O60603 whole entry): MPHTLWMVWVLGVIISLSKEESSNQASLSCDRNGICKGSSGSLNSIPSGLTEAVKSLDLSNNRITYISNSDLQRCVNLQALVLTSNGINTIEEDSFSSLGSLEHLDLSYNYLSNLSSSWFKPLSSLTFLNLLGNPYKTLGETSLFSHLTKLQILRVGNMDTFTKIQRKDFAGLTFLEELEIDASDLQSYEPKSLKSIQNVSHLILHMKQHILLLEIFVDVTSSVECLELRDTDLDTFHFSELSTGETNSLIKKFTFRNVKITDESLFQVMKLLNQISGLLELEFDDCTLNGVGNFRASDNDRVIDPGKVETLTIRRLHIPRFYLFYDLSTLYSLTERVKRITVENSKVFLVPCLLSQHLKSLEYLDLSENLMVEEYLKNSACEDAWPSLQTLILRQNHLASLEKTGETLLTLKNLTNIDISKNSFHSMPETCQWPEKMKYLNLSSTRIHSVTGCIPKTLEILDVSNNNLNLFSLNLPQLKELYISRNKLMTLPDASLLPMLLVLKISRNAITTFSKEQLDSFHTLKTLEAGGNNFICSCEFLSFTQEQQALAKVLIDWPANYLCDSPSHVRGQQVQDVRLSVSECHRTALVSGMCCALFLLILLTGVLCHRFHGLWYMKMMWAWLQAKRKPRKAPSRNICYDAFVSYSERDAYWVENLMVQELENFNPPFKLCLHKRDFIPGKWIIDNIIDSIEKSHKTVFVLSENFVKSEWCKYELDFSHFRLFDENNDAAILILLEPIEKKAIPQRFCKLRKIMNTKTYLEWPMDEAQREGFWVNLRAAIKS

Macrophage [5] = assay: Induction of IL-6 secretion in TLR2-/- C57BL/6 mouse peritoneal macrophages at 0.01 to 10 uM incubated for 24 hrs by ELISA method; type: functional, cell-based; conditions: dose 0.01-10 µM
[6] = target: Toll-like receptor 5 (Homo sapiens) (UniProt O60602); assay: Agonist activity at TLR5 in HEK-Blue hTLR5 cells at 0.1 to 100 uM incubated for 24 hrs by Quanti-Blue based SEAP assay; type: cell-based; conditions: dose 0.1-100 µM
Toll-like receptor 5 (Homo sapiens), sequence (O60602 whole entry): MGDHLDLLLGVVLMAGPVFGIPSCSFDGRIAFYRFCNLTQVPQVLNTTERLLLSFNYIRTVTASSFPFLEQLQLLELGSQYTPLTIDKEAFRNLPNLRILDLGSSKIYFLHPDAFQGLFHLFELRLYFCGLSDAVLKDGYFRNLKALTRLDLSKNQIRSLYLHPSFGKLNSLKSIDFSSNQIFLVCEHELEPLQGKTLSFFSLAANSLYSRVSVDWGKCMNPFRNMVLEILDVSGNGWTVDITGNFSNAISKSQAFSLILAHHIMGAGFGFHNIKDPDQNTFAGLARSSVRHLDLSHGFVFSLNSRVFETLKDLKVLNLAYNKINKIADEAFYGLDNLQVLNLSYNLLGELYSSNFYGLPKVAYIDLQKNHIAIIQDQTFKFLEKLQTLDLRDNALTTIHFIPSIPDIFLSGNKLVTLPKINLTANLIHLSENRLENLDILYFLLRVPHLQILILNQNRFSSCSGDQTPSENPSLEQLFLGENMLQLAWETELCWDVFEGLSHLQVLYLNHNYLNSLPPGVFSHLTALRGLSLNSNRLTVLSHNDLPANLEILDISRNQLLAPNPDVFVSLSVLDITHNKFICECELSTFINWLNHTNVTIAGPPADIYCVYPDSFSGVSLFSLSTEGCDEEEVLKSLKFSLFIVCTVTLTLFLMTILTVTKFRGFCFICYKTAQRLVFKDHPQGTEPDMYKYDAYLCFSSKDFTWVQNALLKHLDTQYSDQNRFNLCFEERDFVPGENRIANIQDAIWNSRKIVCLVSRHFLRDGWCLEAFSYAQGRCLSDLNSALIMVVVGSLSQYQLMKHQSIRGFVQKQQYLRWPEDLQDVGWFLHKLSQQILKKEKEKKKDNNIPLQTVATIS

THP-1 [7] = assay: Upregulation of MyD88 expression in human PMA-differentiated THP-1 cells in presence of T6167923 at 10 uM incubated for 2 hrs by western blot analysis; type: functional, cell-based
THP-1 [8] = assay: Upregulation of MyD88 expression in human PMA-differentiated THP-1 cells in presence of T6167923 at 10 uM after 30 mins by western blot analysis; type: functional, cell-based
THP-1 [9] = assay: Induction of TNFalpha secretion in human PMA-differentiated THP-1 cells incubated for 24 hrs by ELISA method; type: functional, cell-based; conditions: dose 0.01-10 µM
THP-1 [10] = assay: Upregulation of TLR2 expression in human THP-1 cells at 20 uM by immunoprecipitation method; type: functional, cell-based
THP-1 [11] = assay: Upregulation of TLR1 expression in human THP-1 cells at 20 uM by immunoprecipitation method; type: functional, cell-based
Natural killer cell = assay: Immunostimulatory activity in human NK cells assessed as fold increase at 0.1 to 10 uM incubated for 48 hrs by flow cytometry analysis; type: functional; conditions: dose 0.1-10 µM
[12] = Immunostimulatory activity in human CD8+ T cells assessed as fold increase at 0.1 to 10 uM incubated for 48 hrs by flow cytometry analysis; type: functional, CD8-positive T cell; conditions: dose 0.1-10 µM
[13] = Cytotoxicity against HEK-Blue TLR2 cells upto 100 uM incubated for 24 hrs by CCK-8 assay; type: toxicity, cell-based; conditions: human, hek-blue htlr2, 24 h
THP-1 [14] = assay: Upregulation of MyD88 expression in human PMA-differentiated THP-1 cells assessed as induction of p65 phosphorylation at 10 uM incubated for 2 hrs by Western blot analysis; type: functional, cell-based
[15] = Stability in mouse liver microsomes assessed as half life at 250 uM in presence of NADPH by HPLC-MS analysis; type: ADME
HCT-116 [16] = assay: Induction of apoptosis in human HCT-116 cells cocultured with PMA-differentiated THP-1 cells assessed as early apoptotic cells at 10 uM measured after 24 hrs using annexin V-FITC/PI staining based flow cytometry; type: functional
[17] = target: Toll-like receptor 6 (Homo sapiens) (UniProt Q9Y2C9); assay: Agonist activity at TLR6 in HEK-Blue hTLR2 cells at 0.2 uM incubated for 24 hrs in presence of anti-hTLR6-IgA antibodies measured by Quanti-Blue based SEAP assay; type: cell-based
Toll-like receptor 6 (Homo sapiens), sequence (Q9Y2C9 whole entry): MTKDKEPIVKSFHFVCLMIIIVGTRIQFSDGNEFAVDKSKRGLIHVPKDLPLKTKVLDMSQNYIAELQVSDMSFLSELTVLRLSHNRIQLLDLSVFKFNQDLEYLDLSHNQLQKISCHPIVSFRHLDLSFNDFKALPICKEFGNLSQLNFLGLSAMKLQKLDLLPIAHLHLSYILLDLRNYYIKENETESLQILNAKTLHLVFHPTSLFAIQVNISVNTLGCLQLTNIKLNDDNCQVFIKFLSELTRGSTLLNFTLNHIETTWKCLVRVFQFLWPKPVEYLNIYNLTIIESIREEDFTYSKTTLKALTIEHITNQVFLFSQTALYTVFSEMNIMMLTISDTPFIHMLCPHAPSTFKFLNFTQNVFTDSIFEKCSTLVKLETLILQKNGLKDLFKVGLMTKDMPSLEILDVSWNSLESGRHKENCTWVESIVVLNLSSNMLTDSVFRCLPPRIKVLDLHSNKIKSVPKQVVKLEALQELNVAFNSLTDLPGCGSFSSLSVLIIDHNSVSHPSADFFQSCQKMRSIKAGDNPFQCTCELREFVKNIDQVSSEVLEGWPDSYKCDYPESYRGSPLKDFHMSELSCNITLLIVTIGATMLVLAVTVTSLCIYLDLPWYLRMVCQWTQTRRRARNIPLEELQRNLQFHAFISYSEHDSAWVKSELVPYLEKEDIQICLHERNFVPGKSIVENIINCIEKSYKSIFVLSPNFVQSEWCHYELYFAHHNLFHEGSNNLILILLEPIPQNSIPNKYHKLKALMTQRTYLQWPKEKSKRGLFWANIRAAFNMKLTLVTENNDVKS

THP-1 [18] = assay: Induction of IL-1beta secretion in human PMA-differentiated THP-1 cells incubated for 24 hrs by ELISA method; type: functional, cell-based; conditions: dose 0.01-10 µM
CD3-positive T cell = assay: Immunostimulatory activity in mouse C57 spleen CD3+ T cells in assessed as fold increase at 0.1 to 10 uM incubated for 48 hrs by flow cytometry analysis; type: functional, cell-based; conditions: dose 0.1-10 µM
THP-1 [19] = assay: Upregulation of MyD88 expression in human PMA-differentiated THP-1 cells assessed as induction of IKKalpha phosphorylation at 10 uM incubated for 2 hrs by Western blot analysis; type: functional, cell-based
Toll-like receptor 2 [20] = target: T1, Toll-like receptor 2; assay: Agonist activity at TLR2 in HEK-Blue cells assessed as fold increase in activity 0.0015 to 10 uM incubated for 24 hrs by Quanti-Blue based SEAP assay; type: cell-based; conditions: HEK-Blue hTLR2, dose 0.0015-10 µM
PBMC = assay: Induction of IL-1beta secretion in human PBMC incubated for 24 hrs by ELISA method; type: functional, cell-based; conditions: dose 0.01-10 µM

With `CC(C)OC(=O)c1c(NC(=S)Nc2ccc(F)c3ccccc23)sc2c1CCC2` the Activity (Macrophage [1]) was “inactive”, the Activity (THP-1 [2]) was “inactive” and the Activity (HCT-116 [3]) was “inactive”. For the same molecule, the Activity (Toll-like receptor 2 [4]) was “Dose-Dependent Effect”, the Activity (Macrophage [5]) was “inactive” and the Activity [6] was “inactive”. The Activity (THP-1 [7]) was “inactive”, the Activity (THP-1 [8]) was “Active” and the Activity (THP-1 [9]) was “Dose-Dependent Effect”. The Activity (THP-1 [10]) was “Active”, the Activity (THP-1 [11]) was “Active” and the “fold change (FC)” value (Natural killer cell) was 2. For the same molecule, the “fold change (FC)” value [12] was 2, the Activity [13] was “Non-Toxic” and the Activity (THP-1 [14]) was “Active”. The half-life at 250 µM [15] was 1.5 h, the Activity (HCT-116 [16]) was 11.5% and the Activity [17] was “inactive”. For the same molecule, the Activity (THP-1 [18]) was “Dose-Dependent Effect”, the Activity (CD3-positive T cell) was “inactive” and the Activity (THP-1 [19]) was “Active”. The fold change (FC) (Toll-like receptor 2 [20]) was 370 and the Activity (PBMC) was “Dose-Dependent Effect”.
